Values after ≈ are worked out from the molar mass of the structure shown.
Experiments:
[1] = physchem; settings: 37 °C, pH 7, aqueous buffer, thermodynamic from solid
Method: Solubility as meant herein is measured using USP apparatus 2 (U.S. Pharmacopoeia 32-NF27) with agitation at 75 RPM in the dissolution medium of a phosphate buffer maintained at pH 6.8 and 37° C. Such low solubility makes preparing a useful pharmaceutical composition of acceptable size and efficacy especially difficult.
In a preferred embodiment, this is irrespective of the pharmacological effect it might have or ailment it is used to prevent or treat.
The pharmaceutical compositions, powders or granulates according to the invention comprise the hyperbranched polymer/API in specific weight ratios.

[2] = pH 6.8
[3] = physchem; settings: pH 6.8, aqueous buffer
[4] = In vitro dissolution of indapamide, USP Apparatus II (paddle), phosphate buffer pH 6.8; assay type: physicochemical; settings: with polyesteramide hyperbranched polymers, figure 5
Method: Dissolution of indapamide was assessed at 37 °C by the USP Dissolution Tester, Apparatus II (Paddle method), using 900 ml of phosphate buffer (pH 6.8) as the dissolution medium and at a rotation rate of 75 rpm. The tested samples were added directly to buffer in an amount in order to achieve a final concentration of 15 µg / mL indapamide. Aliquots, each of 2 ml, from the dissolution medium were withdrawn at time intervals of 5, 15, 30, 60 minutes. The samples were withdrawn through syringe and filtered through Millipore filter in order to separate the undissolved sample and analyzed for indapamide using UV spectrofotometry at 287 nm.

[5] = In vitro dissolution of glimepiride, USP Apparatus II (paddle), phosphate buffer pH 6.8; assay type: physicochemical; settings: mixed with hyperbranched polymer at the ratio of the invention, 37 °C, figures 3 and 4
Method: Approximately 50 % of the active ingredient (4 mg) is dissolved after 60 minutes of testing at following conditions: 37 °C in the USP Dissolution Tester, Apparatus II (Paddle method) using 900 ml of phosphate buffer (pH 6.8) as the dissolution medium and at a rotation rate of 75 rpm.
Dissolution of glimepiride was assessed at 37 °C by the USP Dissolution Tester, Apparatus II (Paddle method) at a rotation rate of 75 rpm using 900 ml of phosphate buffer (pH 6.8) as dissolution medium. The tested samples were added directly to the buffer in the correct amount to achieve a final concentration of 4,4 µg / mL glimepiride (equals therapeutic dose dissolved in 900 mL). Aliquots, each of 2 ml, from the dissolution medium were withdrawn at time intervals of 5, 15, 30, 60 minutes. The samples were withdrawn through syringe and filtered through Millipore filter and analyzed for glimepiride content using HPLC method.
The amount of dissolved glimepiride was estimated by reversed-phase HPLC (Waters Alliance) in a binary mode, with a photodiode array detector and a communication bus module. […]

[6] = In vitro dissolution of pimobendan, USP Apparatus II (paddle), phosphate buffer pH 6.8; assay type: physicochemical; settings: admixed with Hybrane S1200, 2% and 5% of active ingredient
Method: The samples of pimobendan were prepared as in examples 6 to 13. Dissolution of pimobendan was assessed at 37 °C by the USP Dissolution Tester, Apparatus II (Paddle method) at a rotation rate of 75 rpm, using 900 ml of phosphate buffer (pH 6.8) as the dissolution medium. The tested samples were added directly to the buffer in the correct amount to achieve a final concentration of 5.5 µg / mL pimobendan (equals therapeutic dose dissolved in 900 mL). Aliquots, each of 2 ml, from the dissolution medium were withdrawn at time intervals of 5, 15, 30, 60 minutes. The samples were withdrawn through syringe and filtered through Millipore filter in order to separate the undissolved sample and analyzed for pimobendan using HPLC method.

[7] = Solubility in the presence of Hybrane S1200

| SMILES | solubility [1] [µg/mL] | Increase [2] [fold] | solubility [3, 7] [µg/mL] | solubility ([3]; Solubility without polymer) [µg/mL] | solubility of the indapamide [4] | solubility of glimepiride [5] | solubility of the active ingredient [6] |
| --- | --- | --- | --- | --- | --- | --- | --- |
| O=C1C(O)=C([C@H]2CC[C@H](c3ccc(Cl)cc3)CC2)C(=O)c2ccccc21 [atovaquone] | 3 (≈ 8.18 µM) | 100 | 3 | 0.03 (≈ 0.0818 µM) | – | – | – |
| CC1Cc2ccccc2N1NC(=O)c1ccc(Cl)c(S(N)(=O)=O)c1 (stereo not shown) [indapamide] | 700 (≈ 1910 µM) | 140 | 700 | 5 (≈ 13.7 µM) | remarkably enhance | – | – |
| CCC1=C(C)CN(C(=O)NCCc2ccc(S(=O)(=O)NC(=O)N[C@H]3CC[C@H](C)CC3)cc2)C1=O [glimepiride] | 1 (≈ 2.04 µM) | 10 | 10 | 1 (≈ 2.04 µM) | – | significantly increased | – |
| Cc1ccc(S(=O)(=O)NC(=O)NN2CC3CCCC3C2)cc1 (stereo not shown) [gliclazide] | 50 (≈ 155 µM) | – | – | – | – | – | – |
| COc1ccc(-c2nc3ccc(C4=NNC(=O)CC4C)cc3[nH]2)cc1 (stereo not shown) [pimobendan] | 210 (≈ 628 µM) | 50 | 210 | 4 (≈ 12 µM) | – | – | significantly increases |
| CN1CC(=O)N2[C@H](c3ccc4c(c3)OCO4)c3[nH]c4ccccc4c3C[C@@H]2C1=O [tadalafil] | 110 (≈ 282 µM) | 55 | 110 | 2 (≈ 5.14 µM) | – | – | – |
| COc1ccc(Cl)cc1C(=O)NCCc1ccc(S(=O)(=O)NC(=O)NC2CCCCC2)cc1 [glibenclamide] | 60 (≈ 121 µM) | – | – | – | – | – | – |
